Source: US20240225978A1, “METHODS AND COMPOSITIONS FOR PHARMACOLOGICAL TREATMENT OF BLEPHAROPTOSIS” (priority 2021, published 2024)
Counter-ions that a name gives are not always drawn.

How the values were obtained:
[1] = system: functional blepharoptosis; test: Randomized, double-blinded, controlled study of blepharoptosis treatment with naphazoline 0.1% ophthalmic solution; assay type: in vivo, human
Method: To evaluate the effects of an ophthalmic solution containing an α adrenergic agonist on blepharoptosis, a randomized, double-blinded, controlled study was conducted using naphazoline 0.1%. Participants with either unilateral or bilateral upper eyelid blepharoptosis were randomized to receive either control eye drops (control group) or an ophthalmic solution containing active ingredient naphazoline 0.1% (treatment group).
The composition of the treatment group included naphazoline hydrochloride (concentration 0.1% w/v), sodium chloride, boric acid, calcium chloride, magnesium chloride, potassium chloride, sodium borate, PURITE®, methylcellulose, and purified water. The ophthalmic drops of the control group were composed of all of the preceding compounds except for naphazoline hydrochloride.
Baseline external photographs of all participants were obtained before eye drop administration. Visual field and contrast sensitivity testing were also tested at baseline. Visual field testing was conducted using an OCULUS Easyfield® perimeter. Contrast sensitivity was tested using a Pelli-Robson Contrast Sensitivity Chart (Pelli D G, Robson J, Wilkins A J. The design of a new letter chart for measuring contrast sensitivity. Clin Vision Sci. 1988; 2187-99). After one eye drop was administered to one or both eyes depending on the presence of unilateral or bilateral blepharoptosis, a second photo was obtained 30 minutes later. After 60 minutes, visual field and contrast sensitivity tests were repeated. After 120 minutes, a third and final photo was obtained.
MRD-1 is the distance in millimeters from the upper eyelid margin to the light reflex within the pupil. Measurements were made using Image J software (US National Institutes of Health, Bethesda, MD, U.S.A., http://imagej.nih.gov/ij) by a single designated, blinded investigator. The pupil diameter was also measured at all time points. Secondary effects were recorded and included subject-reported eye irritation, pain, blurry vision, light sensitivity, as well as examiner-noted eye injection, eyelid retraction, and pupil diameter. MRD-1 at the two post-administration time points constituted the primary endpoint. Secondary endpoints included visual field assessment and contrast sensitivity testing.

cosmetic blepharoptosis [2] = test: Controlled study of topical naphazoline 0.1% to improve cosmetic blepharoptosis; assay type: in vivo, human
Method: A comparative study was conducted to investigate the effect of an ophthalmic solution containing naphazoline 0.1% on cosmetic blepharoptosis. Two groups, the control group and treatment group each consisting of 5 subjects, were matched in terms of age and gender. The control group received one drop of normal saline while the treatment group received one drop of an ophthalmic solution containing naphazoline 0.1%. At both 30 minutes and 120 minutes after drop administration, external photographs were obtained and analyzed using Image J imaging software. MRD-1 and the distance between the upper and lower eyelid margins were measured to quantitatively assess cosmetic blepharoptosis. Secondary effects were also recorded, including conjunctival injection, eye pain or irritation, light sensitivity, and pupil size.

cosmetic blepharoptosis [3] = test: Case study of cosmetic blepharoptosis treatment with naphazoline 0.1%; assay type: in vivo, human
Method: They also had brow asymmetry due to compensatory right eyebrow elevation, a separate cosmetic concern. One drop of an ophthalmic solution containing naphazoline 0.1% was administered to the right eye. After 30 minutes, the eyelid was over-elevated with an MRD-1 of 5.5 mm due to continued compensatory brow elevation of the subject's right eyebrow (FIG. 5b). […] Three hours after drop administration, the eyelid and brow symmetry were maintained (FIG. 5d).

[4] = system: functional blepharoptosis; test: Randomized, controlled study of blepharoptosis treatment with tetrahydrozoline 0.1% ophthalmic solution; assay type: in vivo, human
Method: To evaluate the effects of an ophthalmic solution containing an α adrenergic agonist (tetrahydrozoline) on blepharoptosis, a randomized, controlled study was conducted. Participants with both unilateral or bilateral blepharoptosis were randomized to receive either the control eye drop or an ophthalmic solution containing active ingredient tetrahydrozoline 0.1%. Subjects and drop administrators were blinded to the intervention. […] The composition of the treatment group included tetrahydrozoline hydrochloride (concentration 0.1% w/v), sodium chloride, boric acid, calcium chloride, magnesium chloride, potassium chloride, sodium borate, PURITE®, methylcellulose, and purified water. The ophthalmic drops of the control group were composed of all of the preceding compounds except for tetrahydrozoline hydrochloride. Baseline external photographs of all participants were obtained before eye drop administration. After one eye drop was administered, a second photo was obtained 30 minutes later. After 90 minutes, a third and final photo was obtained. The pupil diameter in millimeters was also measured in photos at all time points. Measurements were made using Image J software by a single designated, blinded investigator. Secondary effects from the intervention were recorded including subject-reported eye irritation, pain, blurry vision, light sensitivity, as well as examiner-noted eye injection, eyelid retraction, and pupil size change from baseline.

[5] = system: α adrenergic receptors within Müller's muscle; settings: ophthalmic use for pupil dilation; background statement; cited from earlier work

c1ccc2c(CC3=NCCN3)cccc2c1 [Naphazoline, naphazoline hydrochloride]
difference in proportion of individuals who reported minor side effects, treatment vs control group ([1]; 0.1% ophthalmic solution): not statistically significant | visual field and contrast sensitivity improvement compared to the control group ([1]; 0.1% ophthalmic solution, 60 minutes after drop): greater | improvement in MRD-1 compared to the control group ([1]; 0.1% ophthalmic solution, at 30 minutes and 120 minutes): statistically significant improvement | Contrast Sensitivity Δ (mean) ([1]; Pelli-Robson chart, 60 minutes after one drop 0.1%, baseline 1.29, control 0.03, P 0.03): 0.69 | MRD1 Δ 30 minutes (mean, mm) ([1]; one drop of 0.1% w/v ophthalmic solution, 19 subjects, baseline MRD1 0.93 mm, 30 minutes after drop, control 0.02, P <0.001): 2.15 mm | MRD1 Δ 120 minutes (mean, mm) ([1]; one drop of 0.1% w/v ophthalmic solution, 19 subjects, 120 minutes after drop, control 0.01, P 0.009): 2.08 mm | overall effect on eyelids, visual field, contrast sensitivity and cosmetic appearance ([1]; one drop of ophthalmic composition 0.1% administered twice daily (as summarised in b67 for Example 1)): resulted in eyelid elevation, improvement of a superior visual field defect, increased contrast sensitivity, and improved cosmetic appearance of the eyes, eyelids, and eyebrows | Secondary Effects (%) ([1]; proportion of subjects, one drop 0.1%, control 9.5, P 0.17): 10.5% | VF Δ (mean, % correct) ([1]; visual field, OCULUS Easyfield perimeter, 60 minutes after one drop 0.1%, baseline 33.8, control 2.1, P <0.001): 56.6 % correct | difference in secondary effects, including pupil size, between the two groups (cosmetic blepharoptosis [2]; 0.1% ophthalmic solution): no difference | improvement in MRD-1 and eyelid separation compared to the control group (cosmetic blepharoptosis [2]; 0.1% ophthalmic solution, 30 and 120 minutes): statistically significant improvement | MRD1 Δ 30 minutes (mean, %) (cosmetic blepharoptosis [2]; one drop 0.1% ophthalmic solution, 5 subjects, baseline MRD1 2.4 mm, control (normal saline) 3.8, P 0.01): 42% | MRD1 Δ 120 minutes (mean, %) (cosmetic blepharoptosis [2]; one drop 0.1% ophthalmic solution, 5 subjects, control 1.9, P 0.02): 38% | Eyelid Margin Distance Δ 120 minutes (mean, mm) (cosmetic blepharoptosis [2]; one drop 0.1%, control 0.02, P 0.03): 1.33 mm | Pupil Size Δ 30 minutes (mean, %) (cosmetic blepharoptosis [2]; one drop 0.1%, control 6.7, P 0.37): 10% | Minor Side Effects (%) (cosmetic blepharoptosis [2]; one drop 0.1%, control 20, P 0.49): 20% | Eyelid Margin Distance Δ 30 minutes (mean, mm) (cosmetic blepharoptosis [2]; one drop 0.1%, distance between upper and lower eyelid margins, control 0.03, P 0.009): 1.45 mm | eyelid and brow symmetry after brow relaxation (cosmetic blepharoptosis [3]; one drop 0.1%, FIG. 5c (120 minutes)): achieved both eyelid and brow symmetry | eyelid and brow symmetry three hours after drop administration (cosmetic blepharoptosis [3]; one drop 0.1%, three hours): maintained | MRD-1 of the right eye (cosmetic blepharoptosis [3]; subject, one drop 0.1% ophthalmic solution to the right eye, after 30 minutes, baseline 2.5 mm, eyelid over-elevated due to compensatory brow elevation): 5.5 mm

c1ccc2c(c1)CCCC2C1=NCCN1 (centres unmarked) [Tetrahydrozoline, tetrahydrozoline hydrochloride]
difference in proportion of individuals who reported minor side effects, treatment vs control group ([4]; 0.1% ophthalmic solution): not statistically significant | pupillary size change compared to the control ([4]; 0.1% ophthalmic solution): greater in the treatment group compared to the control, however, this change was not statistically significant | blepharoptosis improvement compared to the control group ([4]; 0.1% ophthalmic solution, both time points): statistically significant at both time points | Minor Side Effects (%) ([4]; one drop 0.1%, control 2.1, P 0.07): 6.7% | Pupil Size Δ 30 minutes (mean, %) ([4]; one drop 0.1%, control 5.8, P 0.09): 9.3% | MRD1 Δ 30 minutes (mean, mm) ([4]; one drop of 0.1% w/v ophthalmic solution, 11 subjects, baseline MRD1 0.85 mm, control 0.04, P 0.01): 2.01 mm | MRD1 Δ 120 minutes (mean, mm) ([4]; one drop of 0.1% w/v ophthalmic solution, 11 subjects, control 0.02, P 0.009): 1.97 mm

CNC[C@H](O)c1cccc(O)c1 [phenylephrine]
duration of pupillary dilation and disabling light sensitivity [5]: up to seven hours | duration of the effect of eyelid elevation [5]: less than ten minutes
